Structures are written as SMILES.

This assay deals with carrageenan-induced rat paw plantar edema. Put plainly: Anti-inflammatory effect of oleuropein compositions in the form of an oil. Format: in vivo. Conditions: for increase % vs. V0 / inhibition % vs. blank-vehicle / increase vs. V0 % / inhibition vs. blank-vehicle %: topical; for increase % vs. V0 / inhibition % vs. blank-vehicle: V1, 60 minutes; for increase vs. V0 % / inhibition vs. blank-vehicle %: V2, 180 minutes. The procedure:
The test was performed according to the method disclosed by Winter et al. (Proc. Soc. Exp. Biol. Med. 1962; vol. 111, pp. 544-547), adapted to the rat paw. The method consisted in the injection of 100 μl of a 0.75% carrageenan solution in physiological saline in the plantar face of the left hind paw of the rat. The volume of the paws was determined by a plethysmometer just before the injection of the carrageenan (V0), 60 minutes after the injection (V1) and 180 minutes (V2) after the injection.
The tested substances were administered topically according to a modification of the method disclosed by Mass6 et al. (Rev. Farmacol. Clin. Exp. 1990, vol. 7, p. 85), following a blind and randomized trial. 100 μl of the substance to be tested were applied over the paw of the animal, spread over the whole surface of the paw, massaging until the complete absorption. The application was repeated 2 times, namely 18 h before the injection of carrageenan and 60 minutes before said injection. Simultaneously to the application, 30 ml/kg of distilled water were administered orally.
Using the method described in Example 7, the anti-inflammatory effect of the four compositions in the form of an oil prepared according to Example 1, which comprised a 0.1%, 0.2%, 0.4%, and 0.8% of oleuropein w/w, respectively, was studied. The blank-vehicle was prepared by the same method as the compositions tested excluding the active ingredient.
The mean±S.E.M. of the volumes of the animal paws was calculated for the three observation periods V0, V1 and V2. The average values of every experimental group were used for the determination of the average increase of the volume of the paws as an effect of the injection of carrageenan during the periods of observation V1 and V2 with regard to the initial volume (V0), and, then, the percentages of the variation of said values with regard to the blank-vehicle group were determined. Finally, the 50% Effective Concentration (EC 50) was calculated through a linear regression optimized by the least squares method. The evaluation of the statistic signification of the variation was performed by the Student's t-test for independent data using a p<0.05 level to establish the difference criteria. […] However, as estimation, it is obtained that EC 50 of the oleuropein composition in the form of an oil is about 0.7%.

Regarding `C/C=C1/[C@H](O[C@@H]2O[C@H](CO)[C@@H](O)[C@H](O)[C@H]2O)OC=C(C(=O)OC)[C@H]1CC(=O)OCCc1ccc(O)c(O)c1` [Oleuropein, oleuropein], the “increase % vs. V0” value by setting is: (0.1% (w/w) oleuropein oil) 27.39%; (0.2% (w/w) oleuropein oil) 24.75%; (0.4% (w/w) oleuropein oil) 18.55%; (0.8% (w/w) oleuropein oil) 16.13%. For the same compound, the “inhibition % vs. blank-vehicle” value runs as follows: (0.1% (w/w) oleuropein oil) 14.62%; (0.2% (w/w) oleuropein oil) 22.86%; (0.4% (w/w) oleuropein oil) 42.19%; (0.8% (w/w) oleuropein oil) 49.73%. Moreover, the “increase vs. V0 %” value by setting is: (0.1% (w/w) oleuropein oil) 43.59%; (0.2% (w/w) oleuropein oil) 36.80%; (0.4% (w/w) oleuropein oil) 26.80%; (0.8% (w/w) oleuropein oil) 25.71%. Besides, the “inhibition vs. blank-vehicle %” value (0.1% (w/w) oleuropein oil) came out at 12.38%, the “inhibition vs. blank-vehicle %” value (0.2% (w/w) oleuropein oil) is 26.03%, the “inhibition vs. blank-vehicle %” value (0.4% (w/w) oleuropein oil) turned out to be 46.13% and the “inhibition vs. blank-vehicle %” value (0.8% (w/w) oleuropein oil) amounted to 48.31%. The “maximum estimated effect, inhibition” value (oily composition of oleuropein) is given as “about 50%”. The “concentration up to which the effect is lineal” value (oleuropein concentration in the oil composition) is given as “about 0.4%”. Besides, for the setting “oleuropein concentration in the oil composition, linear regression by least squares, estimation”, the “50% Effective Concentration (EC 50)” value is “about 0.7%”.

(Values after patent publication US20080249074A1, “Composition for the Transdermal Administration of Physiologically Active Agents” (LABORATORIOS BELMAC, S.A., priority 2005, published 2008).)
